Reference: patent US8524766B2, “Modulators of dopamine neurotransmission” (NSAB, Filial af Neurosearch Sweden AB, Sverige, priority 2008, dated 2013)
Where a name gives a salt, the structure may show the parent alone.

Columns and labels:
[1] = system: DOPAC (3,4-dihydroxyphenylacetic acid) in the rat striatum; test: Increase of DOPAC in the rat striatum after systemic administration (in vivo neurochemistry); settings: sc; estimated ED50 on increase of DOPAC in rat striatum, systemic administration (s.c.), curve fitting
Excerpt: After the behavioural activity sessions, the rats are decapitated and their brains rapidly taken out and put on an ice-cold petri-dish. The limbic forebrain, the striatum, the frontal cortex and the remaining hemispheral parts of each rat are dissected and frozen. Each brain part is subsequently analyzed with respect to its content of monoamines and their metabolites.
The monoamine transmitter substances (NA (noradrenaline), DA (dopamine), 5-HT (serotonin)) as well as their amine (NM (normethanephrine), 3-MT (3-methoxytyramine)) and acid (DOPAC (3,4-dihydroxyphenylacetic acid), 5-HIAA (5-hydroxyindoleacetic acid), HVA (homovanillic acid)) metabolites are quantified in brain tissue homogenates by HPLC separations and electrochemical detection.
The analytical method is based on two chromatographic separations dedicated for amines or acids. Two chromatographic systems share a common auto injector with a 10-port valve and two sample loops for simultaneous injection on the two systems. Both systems are equipped with a reverse phase column (Luna C18(2), dp 3 μm, 50*2 mm i.d., Phenomenex) and electrochemical detection is accomplished at two potentials on glassy carbon electrodes (MF-1000, Bioanalytical Systems, Inc.). The column effluent is passed via a T-connection to the detection cell or to a waste outlet. This is accomplished by two solenoid valves, which block either the waste or detector outlet. By preventing the chromatographic front from reaching the detector, better detection conditions are achieved. The aqueous mobile phase (0.4 ml/min) for the acid system contains citric acid 14 mM, sodium citrate 10 mM, MeOH 15% (v/v) and EDTA 0.1 mM. Detection potentials relative to Ag/AgCl reference are 0.45 and 0.60V. The aqueous ion pairing mobile phase (0.5 ml/min) for the amine system contains citric acid 5 mM, sodium citrate 10 mM, MeOH 9% (v/v), MeCN 10.5% v/v), decane sulfonic acid 0.45 mM, and EDTA 0.1 mM. Detection potentials relative to Ag/AgCl reference are 0.45 and 0.65V.
ED50 values for the increase of DOPAC in striatum are calculated by curve fitting.

drug-naive rats = test: Locomotor activity in drug-naive rats (in vivo behaviour); set-up: species or system rat; settings: recorded for 60 minutes, ± SEM
Excerpt: Photobeam sensors are spaced 2.5 cm apart.

| Structure (SMILES) | melting point [°C] | other results |
| --- | --- | --- |
| CS(=O)(=O)c1ccc2c(c1)OC(CN1CCCCC1)CO2 (stereo not drawn) (as salt: hydrochloric acid salt) [Example 6, 1-{[7-(METHYLSULFONYL)-2,3-DIHYDRO-1,4-BENZODIOXIN-2-YL]METHYL}PIPERIDINE] | 248 |  |
| CS(=O)(=O)c1ccc2c(c1)O[C@@H](CNCCC(F)(F)F)CO2 (as salt: hydrochloric acid salt) | 204 |  |
| CCCNC[C@H]1COc2c(F)cc(S(C)(=O)=O)cc2O1 [Example 21, N-{[(2S)-5-FLUORO-7-(METHYLSULFONYL)-2,3-DIHYDRO-1,4-BENZODIOXIN-2-YL]METHYL}PROPAN-1-AMINE] |  | ED50 [1]: 6.8 µmol/kg; Locomotor activity (drug-naive rats; 3.7 μmol/kg): 12080 ± 1292 counts/60 min; Locomotor activity (drug-naive rats; 11 μmol/kg): 8930 ± 631 counts/60 min; Locomotor activity (drug-naive rats; 33 μmol/kg): 4430 ± 775 counts/60 min |
| CCNC[C@H]1COc2c(F)cc(S(C)(=O)=O)cc2O1 [Example 19, N-{[(2S)-5-FLUORO-7-(METHYLSULFONYL)-2,3-DIHYDRO-1,4-BENZODIOXIN-2-YL]METHYL}ETHANAMINE] |  | ED50 [1]: < 3.7 µmol/kg; Locomotor activity (drug-naive rats; 3.7 μmol/kg): 6123 ± 710 counts/60 min; Locomotor activity (drug-naive rats; 11 μmol/kg): 3191 ± 387 counts/60 min; Locomotor activity (drug-naive rats; 33 μmol/kg): 1936 ± 370 counts/60 min |
| CCCNC[C@H]1COc2c(F)cc(S(C)(=O)=O)cc2O1 (as salt: hydrochloric acid salt) [Example 21, N-{[(2S)-5-FLUORO-7-(METHYLSULFONYL)-2,3-DIHYDRO-1,4-BENZODIOXIN-2-YL]METHYL}PROPAN-1-AMINE] | 226 |  |
| CNC[C@H]1COc2c(Cl)cc(S(C)(=O)=O)cc2O1 (as salt: hydrochloric acid salt) | 262 |  |
| CCCN(CCC)CC1COc2ccc(S(C)(=O)=O)cc2O1 (stereo not drawn) (as salt: hydrochloric acid salt) [Example 16, N-{[7-(METHYLSULFONYL)-2,3-DIHYDRO-1,4-BENZODIOXIN-2-YL]METHYL}-N-PROPYLPROPAN-1-AMINE] | 182 |  |
| CCCNC[C@H]1COc2ccc(S(C)(=O)=O)cc2O1 [Example 3, N-{[(2S)-7-(METHYLSULFONYL)-2,3-DIHYDRO-1,4-BENZODIOXIN-2-YL]METHYL}-PROPAN-1-AMINE] |  | ED50 [1]: 6.1 µmol/kg; Locomotor activity (drug-naive rats; 3.7 μmol/kg): 10297 ± 860 counts/60 min; Locomotor activity (drug-naive rats; 11 μmol/kg): 8973 ± 2186 counts/60 min; Locomotor activity (drug-naive rats; 33 μmol/kg): 6830 ± 128 counts/60 min |
| CC(C)CNC[C@H]1COc2ccc(S(C)(=O)=O)cc2O1 (as salt: hydrochloric acid salt) | 214 |  |
| CCNC[C@H]1COc2c(Cl)cc(S(C)(=O)=O)cc2O1 (as salt: hydrochloric acid salt) | 267 |  |
| CCNC[C@H]1COc2ccc(S(=O)(=O)C(F)(F)F)cc2O1 (as salt: hydrochloric acid salt) | 208 |  |
| CCCNCC1COc2ccc(S(C)(=O)=O)cc2O1 (stereo not drawn) (as salt: hydrochloric acid salt) [Example 1, N-{[7-(METHYLSULFONYL)-2,3-DIHYDRO-1,4-BENZODIOXIN-2-YL]METHYL}-PROPAN-1-AMINE] | 223 |  |
| CCCNC[C@@H]1COc2ccc(S(C)(=O)=O)cc2O1 [Example 2, N-{[(2R)-7-(METHYLSULFONYL)-2,3-DIHYDRO-1,4-BENZODIOXIN-2-YL]METHYL}-PROPAN-1-AMINE] |  | ED50 [1]: 47 µmol/kg; Locomotor activity (drug-naive rats; 3.7 μmol/kg): 10728 ± 1557 counts/60 min; Locomotor activity (drug-naive rats; 11 μmol/kg): 10346 ± 857 counts/60 min; Locomotor activity (drug-naive rats; 33 μmol/kg): 11427 ± 1559 counts/60 min |
| CC1CCCN(C[C@@H]2COc3ccc(S(C)(=O)=O)cc3O2)C1 (stereo partly drawn) (as salt: fumaric acid salt) | 159 |  |
| CC(C)(C)CNC[C@H]1COc2ccc(S(C)(=O)=O)cc2O1 (as salt: hydrochloric acid salt) | 242 |  |
| CNC[C@H]1COc2c(F)cc(S(C)(=O)=O)cc2O1 (as salt: hydrochloric acid salt) | 260 |  |
| CCNC[C@H]1COc2ccc(S(C)(=O)=O)cc2O1 (as salt: hydrochloric acid salt) | 271 |  |
| CCCNC[C@H]1COc2ccc(S(C)(=O)=O)cc2O1 (as salt: hydrochloric acid salt) [Example 3, N-{[(2S)-7-(METHYLSULFONYL)-2,3-DIHYDRO-1,4-BENZODIOXIN-2-YL]METHYL}-PROPAN-1-AMINE] | 228 |  |
| CS(=O)(=O)c1cc(F)c2c(c1)O[C@@H](CN1CCOCC1)CO2 (as salt: hydrochloric acid salt) | 251 |  |
| CCCNC[C@H]1COc2ccc(S(=O)(=O)C(F)(F)F)cc2O1 (as salt: hydrochloric acid salt) [Example 24, N-{[(2S)-7-(TRIFLUOROMETHYLSULFONYL)-2,3-DIHYDRO-1,4-BENZODIOXIN-2-YL]METHYL}PROPAN-1-AMINE] | 175 |  |
| CC(C)CNC[C@@H]1COc2ccc(S(C)(=O)=O)cc2O1 (as salt: hydrochloric acid salt) | 213 |  |
| CCCNC[C@@H]1COc2ccc(S(C)(=O)=O)cc2O1 (as salt: hydrochloric acid salt) [Example 2, N-{[(2R)-7-(METHYLSULFONYL)-2,3-DIHYDRO-1,4-BENZODIOXIN-2-YL]METHYL}-PROPAN-1-AMINE] | 228 |  |
| CNC[C@H]1COc2ccc(S(C)(=O)=O)cc2O1 (as salt: hydrochloric acid salt) [Example 10, N-METHYL-1-[(2S)-7-(METHYLSULFONYL)-2,3-DIHYDRO-1,4-BENZODIOXIN-2-YL]METHANAMINE] | 248 |  |
| CS(=O)(=O)c1cc(F)c2c(c1)O[C@@H](CNCCC(F)(F)F)CO2 (as salt: hydrochloric acid salt) | 233 |  |

Now from value to compound, other results behind:

| melting point [°C] | Structure (SMILES) | other results |
| --- | --- | --- |
| 227 | CS(=O)(=O)c1ccc2c(c1)O[C@@H](CN1CCCCC1)CO2 (as salt: hydrochloric acid salt) [Example 7, 1-{[(2S)-7-(METHYLSULFONYL)-2,3-DIHYDRO-1,4-BENZODIOXIN-2-YL]METHYL}PIPERIDINE] |  |
| 273 | CNCC1COc2ccc(S(C)(=O)=O)cc2O1 (stereo not drawn) (as salt: hydrochloric acid salt) [Example 9, N-METHYL-1-[7-(METHYLSULFONYL)-2,3-DIHYDRO-1,4-BENZODIOXIN-2-YL]METHANAMINE] |  |
| 222 | CCCN(C)CC1COc2ccc(S(C)(=O)=O)cc2O1 (stereo not drawn) (as salt: hydrochloric acid salt) [Example 15, N-METHYL-N-{[7-(METHYLSULFONYL)-2,3-DIHYDRO-1,4-BENZODIOXIN-2-YL]METHYL}PROPAN-1-AMINE] |  |
| 226 | CS(=O)(=O)c1ccc2c(c1)O[C@H](CN1CCCCC1)CO2 (as salt: hydrochloric acid salt) [Example 8, 1-{[(2R)-7-(METHYLSULFONYL)-2,3-DIHYDRO-1,4-BENZODIOXIN-2-YL]METHYL}PIPERIDINE] |  |
| 221 | CS(=O)(=O)c1ccc2c(c1)OC(CN1CCCC1)CO2 (stereo not drawn) (as salt: hydrochloric acid salt) |  |
| 256 | CCNCC1COc2c(F)cc(S(C)(=O)=O)cc2O1 (stereo not drawn) (as salt: hydrochloric acid salt) [Example 18, N-{[5-FLUORO-7-(METHYLSULFONYL)-2,3-DIHYDRO-1,4-BENZODIOXIN-2-YL]METHYL}ETHANAMINE] |  |
| 274 | CCNC[C@H]1COc2c(F)cc(S(C)(=O)=O)cc2O1 (as salt: hydrochloric acid salt) [Example 19, N-{[(2S)-5-FLUORO-7-(METHYLSULFONYL)-2,3-DIHYDRO-1,4-BENZODIOXIN-2-YL]METHYL}ETHANAMINE] |  |
| 261 | CCNCC1COc2ccc(S(C)(=O)=O)cc2O1 (stereo not drawn) (as salt: hydrochloric acid salt) |  |
| 196.2 to 196.5 | CC(C)NC[C@H]1COc2ccc(S(=O)(=O)C(F)(F)F)cc2O1 (as salt: hydrochloric acid salt) [Example 98, N-({(2S)-7-[(TRIFLUOROMETHYL)SULFONYL]-2,3-DIHYDRO-1,4-BENZODIOXIN-2-YL}METHYL)PROPAN-2-AMINE] |  |
| 243 | CNCC1COc2c(F)cc(S(C)(=O)=O)cc2O1 (stereo not drawn) (as salt: hydrochloric acid salt) |  |
| 270 | CCNC[C@H]1COc2ccc(S(C)(=O)=O)c(F)c2O1 (as salt: hydrochloric acid salt) |  |
| 192 | CCCNC[C@H]1COc2c(F)cc(S(C)(=O)=O)cc2O1 (as salt: hydrochloric acid salt) [Example 76, N-{[(2S)-5-FLUORO-7-(METHYLSULFONYL)-2,3-DIHYDRO-1,4-BENZODIOXIN-2-YL]METHYL}-PROPAN-1-AMINE] |  |
